Patent US20160250190A1, “N-METHYL PYRAZOLOANTHRONE FOR TREATMENT OF CANCER” (THE GENERAL HOSPITAL CORPORATION, priority 2013, published 2016)
Entries after “also recorded” stand apart in the source; their conditions may differ.

What was measured:
[1] = tested on: PtD cells xenografted in the flank of nude mice; test: PtD xenograft in nude mice; type: in vivo; details: 30 mg/kg/day for 3 consecutive days
OVCAR5 cells [2] = test: MTT assay in OVCAR5 cells; type: cell-based, human; details: for IC50: Homo sapiens, OVCAR-5, 72 h; for dose of single agent giving virtually complete cell death (95% cell death): 72 h, agent alone
Procedure: (§1) Drug responses were evaluated in the well-established OVCAR5 cancer cell line and a variety of primary ovarian cancer cells lines derived from patient ascites ([…], PKD1, PKD2).

[3] = tested on: ptD primary ovarian cancer cells; test: MTT assay in ptD cells; type: cell-based, human; details: for IC50: Homo sapiens; for IC50 / dose of single agent giving virtually complete cell death (95% cell death): ptD, 72 h; for dose of single agent giving virtually complete cell death (95% cell death): agent alone
Procedure: Drug responses were evaluated in the well-established OVCAR5 cancer cell line and a variety of primary ovarian cancer cells lines derived from patient ascites (ptD, ptH, ptG, PKD1, PKD2).

[4] = tested on: c-JUN phosphorylation (canonical downstream target of JNKs); test: western blot of c-JUN phosphorylation in ptD cells; type: cell-based, human; details: 25 uM, 30 min
300 kinases = details: 0.5 μM inhibitor, 10 uM ATP; cited from earlier work
OVCAR5 cells [5] = test: cell cycle distribution by PI staining and flow cytometry in OVCAR5 cells; type: cell-based, human; details: OVCAR5 synchronized by serum deprivation 24 h, 25 uM with 10% serum
Text: (§2) This pattern is observed in both cells lines, but is particularly pronounced in OVCAR5 (FIG. 5C).

MISR2 (MISRII) = molecular target: T1, MISR2 (MISRII) (Rattus norvegicus, UniProt Q62893); test: rat fetal urogenital ridge (UGR) assay; details: UGR culture, 72 h
T1 construct: UGR tissue is dissected from 14.5d female fetal rats and cultured ex-vivo; from tissue; host or cells: fetal rat urogenital ridge (14.5d female), organ culture
T1 sequence (Q62893 18-557): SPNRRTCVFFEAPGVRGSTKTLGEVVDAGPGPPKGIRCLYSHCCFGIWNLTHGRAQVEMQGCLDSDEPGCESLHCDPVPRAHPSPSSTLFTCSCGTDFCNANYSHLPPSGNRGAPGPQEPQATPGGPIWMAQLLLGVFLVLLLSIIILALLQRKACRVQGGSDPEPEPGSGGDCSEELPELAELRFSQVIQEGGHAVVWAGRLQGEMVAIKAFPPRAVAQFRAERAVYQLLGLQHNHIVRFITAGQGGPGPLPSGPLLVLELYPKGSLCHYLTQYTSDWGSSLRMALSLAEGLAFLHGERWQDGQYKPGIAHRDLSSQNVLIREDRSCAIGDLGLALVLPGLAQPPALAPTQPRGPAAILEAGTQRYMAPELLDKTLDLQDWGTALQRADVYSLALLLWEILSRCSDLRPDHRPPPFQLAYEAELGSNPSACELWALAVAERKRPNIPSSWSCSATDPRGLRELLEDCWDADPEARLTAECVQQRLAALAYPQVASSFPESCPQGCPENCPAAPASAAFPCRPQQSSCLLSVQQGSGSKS
Procedure: UGR tissue is dissected from 14.5d female fetal rats and cultured ex-vivo on a semi solid substrate (agarose droplet on a metal grid) suspended over media at the air/media interface. The UGR from each female is cultured for 72 h in presence of the drugs while the contralateral ridge is cultured in vehicle (DMSO) as a control. The regression of the Mullerian duct, which is specific to MIS activity, is measured in sections of UGR after fixing and embedding.

JNKs = details: Bennet et al. 2001; cited from earlier work
CDKi P21 = test: qPCR expression of CDKi P21 in ptD cells; type: cell-based, human; details: 25 μM, 2-48 h
Text: (§3) To decipher the mechanism of cell cycle block observed by treatment with M-SP600, the inventors next assessed the expression of the kinases CDKi P15 and P21 by qPCR, since these kinases control G1/S transition.

ptD cells = test: cell cycle distribution by PI staining and flow cytometry in ptD cells; type: cell-based, human
Text: as §2

[6] = tested on: OVCAR5 cells xenografted in the flank of nude mice; test: OVCAR5 xenograft in nude mice; type: in vivo, mouse; details: 60 mg/kg/day, 5 days on 2 days off for 3 weeks
Procedure: A longer experiment was subsequently carried out using OVCAR5 cells xenografted at 1×10^6 in the flank of nude mice, which were treated 72 h later in a 5 days on 2 days off schedule for 3 weeks at a dose of 60 mg/kg/day using 3 groups of 5 mice randomly selected.

[7] = tested on: OVCAR5 and primary ovarian cancer cell lines (ptD, ptH, ptG, PKD1, PKD2); test: MTT assay in a panel of ovarian cancer cell lines; type: cell-based, human; details: 72 h, all cell lines
Procedure: as §1

CDKi P15 = test: qPCR expression of CDKi P15; type: cell-based
Text: as §3

Oc1c2ccccc2c2c3c(cccc13)N=N2 [SP600, 1,9-pyrazoloathrone, reference compound]
tolerability [1]: well tolerated | IC50 (OVCAR5 cells [2]): 12.5 µM | IC50 [3]: 6.25 µM

COc1cccc2c1C(=O)c1c(O)c3c(c(O)c1C2=O)C[C@@](O)(C(=O)CO)C[C@@H]3O[C@H]1C[C@H](N)[C@H](O)[C@H](C)O1 [DOX, doxorubicin, reference compound]
dose of single agent giving virtually complete cell death (95% cell death) (OVCAR5 cells [2]): 300 µM | dose of single agent giving virtually complete cell death (95% cell death) [3]: greater than 300 μM

CCCS(=O)(=O)Nc1ccc(F)c(C(=O)c2c[nH]c3ncc(-c4ccc(Cl)cc4)cc23)c1F [Vemurafinib]
sensitivity of cells to the drug ([3]; ptD cells with BRAF V600E mutation): exquisitely sensitive

CCOc1nc(NC(=O)Cc2cc(OC)ccc2OC)cc(N)c1C#N [JNK inhibitor VIII, reference compound]
c-JUN phosphorylation [4]: inhibited

Cn1nc2c3c(cccc31)C(=O)c1ccccc1-2 [M-SP600, N1-methyl-1,9-pyrazolothrone]
number of kinases inhibited at more than 50% (300 kinases): 4 | tolerability [1]: well tolerated | tumor growth ([1]; one week after implant): strong trend emerged of inhibition of tumor growth | cell cycle block (OVCAR5 cells [5]): causes a G1 block | size of Wolffian ducts (MISR2 (MISRII)): smaller Wolffian ducts | dose of single agent giving virtually complete cell death (95% cell death) (OVCAR5 cells [2]): 50 µM | IC50 (OVCAR5 cells [2]): 12.5 µM | IC50 [3]: 6.25 µM | dose of single agent giving virtually complete cell death (95% cell death) [3]: 50 µM | inhibition of JNKs (JNKs): does not inhibit JNKs | expression of P21 by qPCR (CDKi P21): induce P21; also recorded: greater for the M-SP600 than the SP600 | cell cycle distribution (ptD cells; asynchronous ptD cells, 25 uM, 24 h): marked reduction in cells in S phase accompanied by an accumulation of cells particularly in G1 and less so in G2; also recorded: more pronounced with M-SP600 than SP600 | cell cycle block (ptD cells; ptD synchronized by serum deprivation 24 h, 25 uM with 10% serum): causes a G1 block | tumor growth ([6]; versus control at day 15): significantly inhibited | tumor growth ([6]; versus control at day 15, listed as MSP600, 60 mg/kg/day): significantly lower than control | inhibition of cancer cell growth [7]: inhibited | expression of P15 (CDKi P15): upregulation of P21 and P15
